Series [1] is described as follows: Subconjunctival injection into a patient suffering from retinitis pigmentosa. The series is classed as in vivo. The settings on record: 1 mg in poly(lactide-co-glycolide) microsphere suspension, injected subconjunctivally. How it is done: A dose of tazarotene (1 mg) contained in the poly(lactide-co-glycolide) microsphere suspension of Example containing 1 is injected subconjunctivally into a patient suffering from retinitis pigmentosa.
A dose of all-trans retinyl palmitate (1 mg) contained in the poly(lactide-co-glycolide) microsphere suspension of Example containing 1 is injected subconjunctivally into a patient suffering from retinitis pigmentosa.

Series [2] in a line: Subconjunctival injection into a patient suffering from proliferative vitreal retinopathy. It counts as in vivo. The conditions noted are these: 1 mg in poly(lactide-co-glycolide) microsphere suspension, injected subconjunctivally. How it is done: A dose of tazarotene (1 mg) contained in the poly(lactide-co-glycolide) microsphere suspension of Example containing 1 is injected subconjunctivally into a patient suffering from proliferative vitreal retinopathy.

For a further series, the target named is T1, RARα (Homo sapiens, UniProt P10276).
T1 construct: made in house
T1 sequence (P10276 1-462): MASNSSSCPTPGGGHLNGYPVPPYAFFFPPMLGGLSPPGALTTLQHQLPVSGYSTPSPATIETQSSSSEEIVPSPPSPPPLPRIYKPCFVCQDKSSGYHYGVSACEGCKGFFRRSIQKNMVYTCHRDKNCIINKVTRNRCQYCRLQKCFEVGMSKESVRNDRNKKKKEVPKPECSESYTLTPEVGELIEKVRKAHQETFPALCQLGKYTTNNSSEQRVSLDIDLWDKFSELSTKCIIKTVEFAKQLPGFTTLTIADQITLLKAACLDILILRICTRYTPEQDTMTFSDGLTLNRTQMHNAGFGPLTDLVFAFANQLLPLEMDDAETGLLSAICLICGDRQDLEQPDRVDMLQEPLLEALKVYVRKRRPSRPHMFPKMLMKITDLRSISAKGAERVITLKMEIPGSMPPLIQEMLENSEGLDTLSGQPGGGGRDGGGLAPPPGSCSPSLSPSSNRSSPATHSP
The series is described as follows: RARα receptor binding assay, competition with [3H] retinoic acid. The settings on record: Baculovirus-expressed receptor; Kd from IC50 by Cheng-Prussof; mean and standard deviation; read-out: receptor affinity (KD), RARα. How it is done:
All binding assays were performed in a similar fashion.
All receptor binding assays were performed in the same manner. […] Incubations were carried out at 4° C. until equilibrium was achieved. Non-specific binding was defined as that binding remaining in the presence of 1000 nM of the appropriate unlabeled retinoic acid isomer. […] The mixture was vortexed and incubated for 10 minutes at 4° C., centrifuged and the supernatant removed. The hydroxyapitite was washed three more times with the appropriate wash buffer. The receptor-ligand complex was adsorbed by the hydroxyapitite. The amount of receptor-ligand complex was determined by liquid scintillation counting of hydroxyapitite pellet.
(§1) After correcting for non-specific binding, IC50 values were determined. […] The IC50 value was determined graphically from a loglogit plot of the data. The […] were determined by application of the Cheng-Prussof equation to the IC50 values, the labeled ligand concentration and the Kd of the labeled ligand.
The results of ligand binding assay are expressed in Kd numbers.

A further series has as its target T2, RARβ (Homo sapiens, UniProt P10826).
T2 construct: made in house
T2 sequence (P10826 1-455): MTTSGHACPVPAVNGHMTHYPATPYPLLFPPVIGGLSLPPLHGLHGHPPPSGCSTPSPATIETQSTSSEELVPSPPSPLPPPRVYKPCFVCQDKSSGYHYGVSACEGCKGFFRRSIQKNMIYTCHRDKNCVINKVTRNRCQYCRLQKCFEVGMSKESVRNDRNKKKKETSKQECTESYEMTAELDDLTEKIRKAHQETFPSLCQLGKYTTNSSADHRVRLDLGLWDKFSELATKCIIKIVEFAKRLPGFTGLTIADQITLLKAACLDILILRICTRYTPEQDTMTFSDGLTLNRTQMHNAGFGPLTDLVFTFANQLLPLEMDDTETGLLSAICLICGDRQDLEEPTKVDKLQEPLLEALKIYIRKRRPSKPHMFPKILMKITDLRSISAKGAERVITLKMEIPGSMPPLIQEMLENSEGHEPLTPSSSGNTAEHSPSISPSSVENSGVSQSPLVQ
The series is described as follows: RARβ receptor binding assay, competition with [3H] retinoic acid. The conditions noted are these: Baculovirus-expressed receptor; Kd from IC50 by Cheng-Prussof; mean and standard deviation; read-out: receptor affinity (KD), RARβ. How it is done:
(§2) The binding of tazarotene and tazarotenic acid to the retinoic acid receptor (RAR) family receptors (RARα, RARβ, RARγ) was determined as follows.
(§3) All binding assays were performed in a similar fashion. All three receptor subtypes were derived from the expressed receptor type (RARα, RARβ, and RARγ) expressed in Baculovirus. Stock solutions of the compounds were prepared as 10 mM ethanol solutions and serial dilutions carried out into 1:1 DMSO; ethanol. Assay buffers consisted of the following for all six receptor assays: 8% glycerol, 120 mM KCl, 8 mM Tris, 5 mM CHAPS 4 mM DTT and 0.24 mM PMSF, pH-7.4 @ room temperature.
(§4) All receptor binding assays were performed in the same manner. […] The amount of receptor-ligand complex was determined by liquid scintillation counting of hydroxyapitite pellet.
as §1
(§5) The results of ligand binding assay are expressed in Kd numbers. […] Binding data for tazarotenic acid is expressed as the mean and standard deviation. […]

The target of another series is T3, RARγ (Homo sapiens, UniProt P13631).
T3 construct: made in house
T3 sequence (P13631 1-454): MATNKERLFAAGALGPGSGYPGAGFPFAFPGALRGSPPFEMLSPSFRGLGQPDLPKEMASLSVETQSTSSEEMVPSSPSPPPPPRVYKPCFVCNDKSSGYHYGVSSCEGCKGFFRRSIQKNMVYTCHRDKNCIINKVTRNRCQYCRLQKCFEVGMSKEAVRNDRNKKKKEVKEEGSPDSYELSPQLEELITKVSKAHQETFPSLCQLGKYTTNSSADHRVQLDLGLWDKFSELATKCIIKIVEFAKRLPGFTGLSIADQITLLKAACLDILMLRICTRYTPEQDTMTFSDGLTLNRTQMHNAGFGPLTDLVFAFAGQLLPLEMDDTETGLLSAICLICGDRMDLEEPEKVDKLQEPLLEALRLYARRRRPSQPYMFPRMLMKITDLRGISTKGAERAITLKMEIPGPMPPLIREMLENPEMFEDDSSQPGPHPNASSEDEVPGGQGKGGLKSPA
The series is described as follows: RARγ receptor binding assay, competition with [3H] retinoic acid. The conditions noted are these: Baculovirus-expressed receptor; Kd from IC50 by Cheng-Prussof; mean and standard deviation; read-out: receptor affinity (KD), RARγ. How it is done: as §2, §3, §4, §1, §5

The nature of series [3]: Ocular disposition of tazarotene and tazarotenic acid after intraocular and subconjunctival administration of tazarotene. It counts as in vivo. The conditions noted are these: albino rabbits. As for the experimental part: General disposition of tazarotene and tazarotenic acid resulting from intraocular and subconjunctival administration of tazarotene was assessed. Albino rabbits were dosed via intraocular injection with 1.25 μg of tazarotene. Injection was made mid-vitreous. After dosing the vitreous, retina and aqueous humor concentrations of tazarotene and tazarotenic acid were determined at 0.5, 1, 2, 4, 8, 12 and 24 hours post dosing.
Tazarotene was also dosed in the subconjunctival space. Three dosage forms were evaluated: the tazarotene aqueous suspension described in Example 2 (50 μl of the solution, 1 mg tazarotene), tazarotene olive oil solution described in Example 3 (50 μl mg of the solution, 1 mg of tazarotene), and the tazarotene poly(lactide-co-glycolide) microsphere suspension described in Example 1. After dosing, the vitreous, retina and aqueous humor concentrations of tazarotene and tazarotenic acid were determined at 2, 8, 24, 48, 96, 168 and 336 hours post dosing (see FIGS. 1-8). […] In Table 1 the mean vitreous concentration refers to average vitreous concentration observed from zero to one hundred sixty-eight hours post dosing. The mean vitreous concentration at each time point was used to calculate the overall vitreous mean concentration over the 168 hours for a given route of administration and dosage form. […]

SMILES strings stand for the structures.

Regarding `CCCCCCCCCCCCCCCC(=O)OC/C=C(C)/C=C/C=C(C)/C=C/C1=C(C)CCCC1(C)C` [all-trans retinyl palmitate], the “effect on vision, retinitis pigmentosa” value in series [1] is “Maintenance of vision or a slowing of the progression of vision loss is observed”.
As to `CCOC(=O)c1ccc(C#Cc2ccc3c(c2)C(C)(C)CCS3)nc1` [tazarotene, ethyl 6-[(4,4-dimethylthiochroman-6-yl)ethynyl]nicotinate], the “effect on vision, retinitis pigmentosa” value in series [1] is “Maintenance of vision or a slowing of the progression of vision loss is observed”. In series [2], the “effect on traction retinal detachment, proliferative vitreal retinopathy” value is given as “Traction retinal detachment is prevented or the rate of traction retinal detachment is reduced”.
By Kd is commonly meant the free concentration of one partner at which half of the binding sites on the other are occupied at equilibrium, for simple one-to-one binding. In the case of `CC1(C)CCSc2ccc(C#Cc3ccc(C(=O)O)cn3)cc21` [tazarotenic acid, 4,4-dimethyl-6-[2′-(5″-carboxy-2″-pyridyl)-ethynyl]-thiochroman], the Kd at RARα came to 0.901 ± 0.123 µM; at RARβ, 0.164 ± 0.048 µM; on RARγ it was 0.353 ± 0.037 µM. The “maximal vitreous concentration of tazarotenic acid obtainable after direct intraocular implantation” value in series [3] (intraocular tazarotene) is 10 ng/mL. Besides, the “period for which concentrations were maintained at low effective levels” value in series [3] (subconjunctival dosing of tazarotene, ocular tissues) was 336 h.

(Values after patent publication US20120157499A1, “DELIVERY OF AN ACTIVE DRUG TO THE POSTERIOR PART OF THE EYE VIA SUBCONJUNCTIVAL OR PERIOCULAR DELIVERY OF A PRODRUG” (Allergan, Inc., priority 2003, published 2012).)
